Test results as given in patent publication US20250002486A1, “CYCLIC SULFONAMIDE RIBONUCLEOTIDE REDUCTASE (RNR) INHIBITORS AND USES THEREOF” (Boundless Bio, Inc., priority 2021, published 2025).

Assays:
RNR (RNR1:RNR2 1:1) = RNR (RNR1:RNR2 1:1) (Homo sapiens (Human), UniProt P23921); assay: RNR enzyme activity, rapid-fire mass spectrometry (RF/MS) assay; type: biochemical; details: RNR 50 nM, 1:1 RNR1:RNR2; CDP 5 μM, ATP 1 mM; 37° C., 45 min; compounds screened up to 50 μM
Description: A rapid-fire mass spectrometry (RF/MS) assay was used to assess RNR enzyme activity using a 384 well plate and a robotic platform.
The plate layout included two validated reference compounds (Triapine (3-AP) and Hydroxyurea (HU)): • A dose response in duplicate; top concentration: 5 μM (3-AP) and 250 μM (HU), semi-log • dilutions. • Spike wells in triplicate randomly spotted at four concentrations: • 250 μM, 100 μM, 30 μM and 2 μM for HU • 5 μM, 2 μM, 0.6 μM and 0.04 μM for 3-AP
First, the multidrop pipes were saturated for 30 minutes with enzymatic solution. Then 30 μL of Stop solution was distributed in column 24. Next, 15 μL of enzyme was distributed in column 1 to 24. Next, a pre-incubation step of 15 minutes at room temperature occurred, followed by distribution of 15 μL of substrate solution (column 1 to 24). Next, the plate was incubated for 45 minutes at 37° C. 30 μL of Stop solution was distributed to columns 1 to 23.
The final parameters for the enzyme reactions were: • Incubation: 37° C., 45 min • [CDP]: 5 μM; [ATP]: 1 mM; [NADPH]: No • [RNR]final: 50 nM with 1:1 (RNR1:RNR2) ratio • Final volume: 30 μL • Stop solution: 6% HCOOH containing 2 μM of 15

[1] = test system: pCHK1 (S345) in Colo320 DM cells; assay: Alphalisa assay: pCHK1 (S345) detection in Colo320 DM cells; type: cell-based, human; details: Homo sapiens, COLO 320DM, compound incubation overnight (approximately 16 hours), pCHK1 (S345) AlphaLisa Sure Fire kit
Description: Colo320 DM cells (ATCC #CCL-220, derived from human colorectal adenocarcinoma, Dukes' type C) were seeded on a 96-well, cell culture treated assay plate at a density of 50,000 cells/well in 200 μL of RPMI-1640 media supplemented with 10% Fetal Bovine Serum and incubated at 37 degrees Celsius overnight. The following day, test compound dilutions were added directly to the plated cells by a Tecan digital dispenser to a final DMSO concentration of <0.5%. and incubated at 37 degrees Celsius overnight (approximately 16 hours). The following day all cull culture media was removed from the cells. 75 μL of 1× AlphaLisa lysis buffer was added to each well and plates were agitated on a shaker for 30 minutes at room temperature. The lysis of cells and detection of pCHK1 (S345) were performed with regents contained within the AlphaLisa Sure Fire assay kit (Perkin Elmer #ALSU-PCHK1-A) according to the manufacturer's instructions. 10 μL of each lysate was then transferred to a white, 384-well assay plate (Perkin Elmer #6008280). 5 μL of Acceptor mix was then added to each well of lysate in the white, 384-well assay plate and incubated in the dark at room temperature for 60 minutes. 5 μL of Donor mix was then added to each well of the white, 384-well assay plate in subdued light and incubated at room temperature for 60 minutes. Plates were read on an Alpha Technology-compatible plate reader using standard AlphaLisa settings.

Sequence of RNR (RNR1:RNR2 1:1) (P23921 whole entry): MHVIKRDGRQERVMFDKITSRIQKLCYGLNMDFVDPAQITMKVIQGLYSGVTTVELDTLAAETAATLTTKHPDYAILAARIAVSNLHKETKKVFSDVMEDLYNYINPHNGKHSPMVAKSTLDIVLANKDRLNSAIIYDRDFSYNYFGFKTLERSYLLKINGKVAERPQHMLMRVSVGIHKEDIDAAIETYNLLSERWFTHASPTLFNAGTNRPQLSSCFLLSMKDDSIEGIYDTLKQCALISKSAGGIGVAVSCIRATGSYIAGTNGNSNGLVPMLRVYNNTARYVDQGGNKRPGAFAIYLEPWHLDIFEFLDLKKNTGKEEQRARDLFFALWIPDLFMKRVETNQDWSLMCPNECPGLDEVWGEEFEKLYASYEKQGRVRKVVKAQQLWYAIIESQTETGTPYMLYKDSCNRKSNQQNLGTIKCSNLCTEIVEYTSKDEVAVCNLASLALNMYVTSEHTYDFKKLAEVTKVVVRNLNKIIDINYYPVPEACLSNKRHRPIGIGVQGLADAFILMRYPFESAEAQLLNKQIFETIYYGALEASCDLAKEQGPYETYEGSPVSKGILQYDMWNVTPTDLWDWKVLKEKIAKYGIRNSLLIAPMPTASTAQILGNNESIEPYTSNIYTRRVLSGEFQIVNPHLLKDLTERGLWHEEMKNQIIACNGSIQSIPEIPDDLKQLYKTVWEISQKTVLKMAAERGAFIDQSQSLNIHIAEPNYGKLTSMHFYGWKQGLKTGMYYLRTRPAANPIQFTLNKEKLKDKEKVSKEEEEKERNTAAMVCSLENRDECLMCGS

IC50 (RNR (RNR1:RNR2 1:1)) | IC50 [1] | Structure (SMILES)
1 to 10 µM | > 50 µM | Cc1ccc(F)c(C(C)[C@@H](c2n[nH]c(=O)o2)N2CC(C)(C)c3cc(Cl)ccc3S2(=O)=O)c1C (stereo partly drawn) [Example 21, 5-((1S)-1-(6-chloro-4,4-dimethyl-1,1-dioxido-3,4-dihydro-2H-benzo[e][1,2]thiazin-2-yl)-2-(6-fluoro-2,3-dimethylphenyl)propyl)-1,3,4-oxadiazol-2(3H)-one]
0.1 to 1 µM | 5 to 10 µM | Cc1ccc(F)c([C@@H](C)[C@@H](c2n[nH]c(=O)o2)N2CC(F)(F)c3cc(Cl)ccc3S2(=O)=O)c1C [Example 22, 5-((1S,2R)-1-(6-chloro-4,4-difluoro-1,1-dioxido-3,4-dihydro-2H-benzo[e][1,2]thiazin-2-yl)-2-(6-fluoro-2,3-dimethylphenyl)propyl)-1,3,4-oxadiazol-2(3H)-one]
0.1 to 1 µM | 10 to 50 µM | Cc1ccc(F)c([C@@H](C)[C@@H](c2n[nH]c(=O)o2)N2CCc3c(Cl)cccc3S2(=O)=O)c1C [Example 23, 5-((1S,2R)-1-(5-chloro-1,1-dioxido-3,4-dihydro-2H-benzo[e][1,2]thiazin-2-yl)-2-(6-fluoro-2,3-dimethylphenyl)propyl)-1,3,4-oxadiazol-2(3H)-one]
≤ 0.1 µM | ≤ 5 µM | Cc1ccc(F)c([C@@H](C)[C@@H](c2n[nH]c(=O)o2)N2CCc3nc(Cl)ccc3S2(=O)=O)c1C [Example 24, 5-((1S,2R)-1-(6-chloro-1,1-dioxido-3,4-dihydro-2H-pyrido[2,3-e] [1,2]thiazin-2-yl)-2-(6-fluoro-2,3-dimethylphenyl)propyl)-1,3,4-oxadiazol-2(3H)-one]
≤ 0.1 µM | 10 to 50 µM | Cc1ccc(F)c([C@@H](C)[C@@H](c2n[nH]c(=O)o2)N2CC(C)(O)c3cc(Cl)ccc3S2(=O)=O)c1C (stereo partly drawn) [Example 25, 5-((1S,2R)-1-(6-chloro-4-hydroxy-4-methyl-1,1-dioxido-3,4-dihydro-2H-benzo[e][1,2]thiazin-2-yl)-2-(6-fluoro-2,3-dimethylphenyl)propyl)-1,3,4-oxadiazol-2(3H)-one]
≤ 0.1 µM | 10 to 50 µM | Cc1ccc(F)c(C(C)[C@@H](c2n[nH]c(=O)o2)N2C[C@H](O)[C@H](O)c3cc(Cl)ccc3S2(=O)=O)c1C (stereo partly drawn) [Example 26, 5-((1S)-1-((4S, 5R)-7-chloro-4,5-dihydroxy-1,1-dioxido-4,5-dihydrobenzo [f][1,2]thiazepin-2(3H)-yl)-2-(6-fluoro-2,3-dimethylphenyl)propyl)-1,3,4-oxadiazol-2(3H)-one]
0.1 to 1 µM | > 50 µM | Cc1ccc(F)c([C@@H](C)[C@@H](c2n[nH]c(=O)o2)N2CCc3cc(Cl)ncc3S2(=O)=O)c1C [Example 27, 5-((1S,2R)-1-(6-chloro-1,1-dioxido-3,4-dihydro-2H-pyrido[4,3-e] [1,2]thiazin-2-yl)-2-(6-fluoro-2,3-dimethylphenyl)propyl)-1,3,4-oxadiazol-2(3H)-one]
